Experimental data reported in the supplement of paper PMC13207355.

Assays:
Conditions in all cases: exposure time: 72 h
E34 [1] = patient-derived glioblastoma stem cells of proneural subtype; test: surviving fraction (nuclei count normalised to DMSO); higher = more cells surviving (less toxic)
E31 [2] = patient-derived glioblastoma stem cells of proneural subtype; test: as above
E57 [3] = patient-derived glioblastoma stem cells of mesenchymal subtype; test: as above
E13 [4] = patient-derived glioblastoma stem cells of classical subtype; test: as above
E21 [5] = patient-derived glioblastoma stem cells of mesenchymal subtype; test: as above
E28 [6] = patient-derived glioblastoma stem cells of classical subtype; test: as above
FT3469 [7] = normal neural stem cell line; test: as above
E34 [8] = test: phenotypic distance (Euclidean, principal components) from DMSO controls (arbitrary units); higher = stronger morphological change
E31 [9] = test: as above
E57 [10] = test: as above
E13 [11] = test: as above
E21 [12] = test: as above
E28 [13] = test: as above
FT3469 [14] = test: as above
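Wherever phenotypic distance (Euclidean, principal components) from DMSO controls is given: cell Painting imaging in 384-well plates, CellProfiler features reduced to at least 20 principal components, Euclidean distance versus same-plate DMSO vehicle wells (0.1% v/v), median over six images per well.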
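Wherever surviving fraction (nuclei count normalised to DMSO) is given: nuclei counted by high-content imaging of Hoechst-stained cells in laminin-coated 384-well plates, relative to 0.1% DMSO vehicle wells, with staurosporine as cell-death control.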

O=c1c2ccccc2[se]n1-c1ccccc1 [Ebselen]
Conditions | phenotypic distance | surviving fraction
E13 [4], 4.11523 nM | – | 1.18
E13 [4], 12.34567901 nM | – | 1.04
E13 [4], 37.037 nM | – | 1.05
E13 [4], 111.1111111 nM | – | 1.07
E13 [4], 333.333 nM | – | 1.16
E13 [4], 1000 nM | – | 1.11
E13 [4], 3000 nM | – | 0.579
E13 [11], 4.11523 nM | 0.891 | –
E13 [11], 12.34567901 nM | 0.779 | –
E13 [11], 37.037 nM | 0.477 | –
E13 [11], 111.1111111 nM | 0.532 | –
E13 [11], 333.333 nM | 0.51 | –
E13 [11], 1000 nM | 0.854 | –
E13 [11], 3000 nM | 1.59 | –
E21 [5], 4.11523 nM | – | 1.06
E21 [5], 12.34567901 nM | – | 1.15
E21 [5], 37.037 nM | – | 1.11
E21 [5], 111.1111111 nM | – | 1.08
E21 [5], 333.333 nM | – | 1.1
E21 [5], 1000 nM | – | 1.14
E21 [5], 3000 nM | – | 0.582
E21 [12], 4.11523 nM | 0.63 | –
E21 [12], 12.34567901 nM | 1.29 | –
E21 [12], 37.037 nM | 0.667 | –
E21 [12], 111.1111111 nM | 1.02 | –
E21 [12], 333.333 nM | 0.791 | –
E21 [12], 1000 nM | 0.556 | –
E21 [12], 3000 nM | 1.89 | –
E28 [6], 4.11523 nM | – | 0.974
E28 [6], 12.34567901 nM | – | 1.18
E28 [6], 37.037 nM | – | 1.14
E28 [6], 111.1111111 nM | – | 1.12
E28 [6], 333.333 nM | – | 1.15
E28 [6], 1000 nM | – | 1.1
E28 [6], 3000 nM | – | 0.0788
E28 [13], 4.11523 nM | 0.754 | –
E28 [13], 12.34567901 nM | 1.01 | –
E28 [13], 37.037 nM | 0.601 | –
E28 [13], 111.1111111 nM | 0.529 | –
E28 [13], 333.333 nM | 0.764 | –
E28 [13], 1000 nM | 0.79 | –
E28 [13], 3000 nM | 2.56 | –
E31 [2], 4.11523 nM | – | 0.993
E31 [2], 12.34567901 nM | – | 0.922
E31 [2], 37.037 nM | – | 1.2
E31 [2], 111.1111111 nM | – | 1.12
E31 [2], 333.333 nM | – | 1.13
E31 [2], 1000 nM | – | 0.905
E31 [2], 3000 nM | – | 0.127
E31 [9], 4.11523 nM | 0.71 | –
E31 [9], 12.34567901 nM | 0.778 | –
E31 [9], 37.037 nM | 0.875 | –
E31 [9], 111.1111111 nM | 0.398 | –
E31 [9], 333.333 nM | 0.33 | –
E31 [9], 1000 nM | 0.763 | –
E31 [9], 3000 nM | 3.3 | –
E34 [1], 4.11523 nM | – | 0.901
E34 [1], 12.34567901 nM | – | 1.1
E34 [1], 37.037 nM | – | 0.955
E34 [1], 111.1111111 nM | – | 1
E34 [1], 333.333 nM | – | 1.04
E34 [1], 1000 nM | – | 1.05
E34 [1], 3000 nM | – | 0.512
E34 [8], 4.11523 nM | 0.415 | –
E34 [8], 12.34567901 nM | 0.549 | –
E34 [8], 37.037 nM | 0.806 | –
E34 [8], 111.1111111 nM | 0.859 | –
E34 [8], 333.333 nM | 0.532 | –
E34 [8], 1000 nM | 1.03 | –
E34 [8], 3000 nM | 1.91 | –
E57 [3], 4.11523 nM | – | 1.04
E57 [3], 12.34567901 nM | – | 0.962
E57 [3], 37.037 nM | – | 1.01
E57 [3], 111.1111111 nM | – | 1.05
E57 [3], 333.333 nM | – | 0.995
E57 [3], 1000 nM | – | 1.04
E57 [3], 3000 nM | – | 0.343
E57 [10], 4.11523 nM | 0.316 | –
E57 [10], 12.34567901 nM | 0.564 | –
E57 [10], 37.037 nM | 0.5 | –
E57 [10], 111.1111111 nM | 0.407 | –
E57 [10], 333.333 nM | 0.482 | –
E57 [10], 1000 nM | 1 | –
E57 [10], 3000 nM | 4.42 | –
FT3469 [7], 4.11523 nM | – | 1.14
FT3469 [7], 12.34567901 nM | – | 1.14
FT3469 [7], 37.037 nM | – | 1.11
FT3469 [7], 111.1111111 nM | – | 1.15
FT3469 [7], 333.333 nM | – | 1.32
FT3469 [7], 1000 nM | – | 0.997
FT3469 [7], 3000 nM | – | 0.189
FT3469 [14], 4.11523 nM | 0.678 | –
FT3469 [14], 12.34567901 nM | 0.843 | –
FT3469 [14], 37.037 nM | 0.785 | –
FT3469 [14], 111.1111111 nM | 0.587 | –
FT3469 [14], 333.333 nM | 1.06 | –
FT3469 [14], 1000 nM | 0.639 | –
FT3469 [14], 3000 nM | 4.47 | –

Clc1ccc(COC(Cn2ccnc2)c2ccc(Cl)cc2Cl)cc1 (stereo unspecified) [Econazole nitrate]
Conditions | phenotypic distance | surviving fraction
E13 [4], 4.1 nM | – | 0.964
E13 [4], 12.3 nM | – | 1.05
E13 [4], 37 nM | – | 0.999
E13 [4], 111.1 nM | – | 1.11
E13 [4], 333.3 nM | – | 1.08
E13 [4], 1000 nM | – | 0.997
E13 [4], 3000 nM | – | 0.967
E13 [11], 4.1 nM | 0.86 | –
E13 [11], 12.3 nM | 0.584 | –
E13 [11], 37 nM | 0.567 | –
E13 [11], 111.1 nM | 1.07 | –
E13 [11], 333.3 nM | 1.37 | –
E13 [11], 1000 nM | 0.962 | –
E13 [11], 3000 nM | 1.16 | –
E21 [5], 4.1 nM | – | 1.11
E21 [5], 12.3 nM | – | 0.967
E21 [5], 37 nM | – | 0.99
E21 [5], 111.1 nM | – | 1.03
E21 [5], 333.3 nM | – | 1.01
E21 [5], 1000 nM | – | 1.11
E21 [5], 3000 nM | – | 1.18
E21 [12], 4.1 nM | 0.651 | –
E21 [12], 12.3 nM | 0.516 | –
E21 [12], 37 nM | 0.785 | –
E21 [12], 111.1 nM | 0.844 | –
E21 [12], 333.3 nM | 0.917 | –
E21 [12], 1000 nM | 0.797 | –
E21 [12], 3000 nM | 1.31 | –
E28 [6], 4.1 nM | – | 1.06
E28 [6], 12.3 nM | – | 1.03
E28 [6], 37 nM | – | 1.06
E28 [6], 111.1 nM | – | 0.943
E28 [6], 333.3 nM | – | 1.12
E28 [6], 1000 nM | – | 0.941
E28 [6], 3000 nM | – | 0.965
E28 [13], 4.1 nM | 0.359 | –
E28 [13], 12.3 nM | 0.539 | –
E28 [13], 37 nM | 0.504 | –
E28 [13], 111.1 nM | 0.446 | –
E28 [13], 333.3 nM | 0.803 | –
E28 [13], 1000 nM | 0.72 | –
E28 [13], 3000 nM | 0.946 | –
E31 [2], 4.1 nM | – | 1.03
E31 [2], 12.3 nM | – | 0.985
E31 [2], 37 nM | – | 0.969
E31 [2], 111.1 nM | – | 0.924
E31 [2], 333.3 nM | – | 1.08
E31 [2], 1000 nM | – | 1.17
E31 [2], 3000 nM | – | 1.14
E31 [9], 4.1 nM | 0.819 | –
E31 [9], 12.3 nM | 0.415 | –
E31 [9], 37 nM | 0.765 | –
E31 [9], 111.1 nM | 0.767 | –
E31 [9], 333.3 nM | 0.871 | –
E31 [9], 1000 nM | 1.4 | –
E31 [9], 3000 nM | 1.39 | –
E34 [1], 4.1 nM | – | 0.983
E34 [1], 12.3 nM | – | 1.08
E34 [1], 37 nM | – | 1.01
E34 [1], 111.1 nM | – | 1.17
E34 [1], 333.3 nM | – | 1.03
E34 [1], 1000 nM | – | 1.11
E34 [1], 3000 nM | – | 0.957
E34 [8], 4.1 nM | 0.901 | –
E34 [8], 12.3 nM | 0.505 | –
E34 [8], 37 nM | 0.479 | –
E34 [8], 111.1 nM | 1.39 | –
E34 [8], 333.3 nM | 0.912 | –
E34 [8], 1000 nM | 1.29 | –
E34 [8], 3000 nM | 1.17 | –
E57 [3], 4.1 nM | – | 1.02
E57 [3], 12.3 nM | – | 1.04
E57 [3], 37 nM | – | 1.07
E57 [3], 111.1 nM | – | 1.06
E57 [3], 333.3 nM | – | 1.09
E57 [3], 1000 nM | – | 1.03
E57 [3], 3000 nM | – | 1.05
E57 [10], 4.1 nM | 0.324 | –
E57 [10], 12.3 nM | 0.67 | –
E57 [10], 37 nM | 0.501 | –
E57 [10], 111.1 nM | 0.756 | –
E57 [10], 333.3 nM | 0.858 | –
E57 [10], 1000 nM | 1.1 | –
E57 [10], 3000 nM | 1.45 | –
FT3469 [7], 4.1 nM | – | 0.824
FT3469 [7], 12.3 nM | – | 0.949
FT3469 [7], 37 nM | – | 1.04
FT3469 [7], 111.1 nM | – | 1.03
FT3469 [7], 333.3 nM | – | 0.854
FT3469 [7], 1000 nM | – | 0.902
FT3469 [7], 3000 nM | – | 0.864
FT3469 [14], 4.1 nM | 0.434 | –
FT3469 [14], 12.3 nM | 0.211 | –
FT3469 [14], 37 nM | 0.645 | –
FT3469 [14], 111.1 nM | 0.741 | –
FT3469 [14], 333.3 nM | 0.628 | –
FT3469 [14], 1000 nM | 0.747 | –
FT3469 [14], 3000 nM | 0.632 | –
